Patent US20040127566A1, “Retinoid hepatitis therapy” (priority 2004, published 2004)

What was measured:
hepatitis-A = test: Free ATRA (oral) in a patient positive for hepatitis-A (Example 3)
hepatitis-C = test: Free ATRA (oral) in a patient positive for hepatitis-C (Example 2)
[1] = blood, one month subsequent to the 3-week point
[2] = four months after beginning use of ATRA
[3] = one month subsequent to the 3-week point

CC1=C(/C=C/C(C)=C/C=C/C(C)=C/C(=O)O)C(C)(C)CCC1 [free ATRA, all-trans retinoic acid]
viral load (hepatitis-A; [1]): < 1,000 copies/ml
PCR status (hepatitis-A; [2]): negative
blood chemistry as to hepatitis A (SPGT and SGOT, bilirubin, alkaline phosphatase) (hepatitis-A; [3]): normal
viral load (hepatitis-C; [1]): < 11000 copies/ml
PCR status (hepatitis-C; [2]): negative
blood chemistry as to hepatitis C (SPGT and SGOT, bilirubin, alkaline phosphatase) (hepatitis-C; [3]): normal
